Drawing on patent publication US7576094B2, “Spiro derivatives as lipoxygenase inhibitors” (Eli Lilly and Company, priority 2004, dated 2009), this text covers EC50 and IC50 for 19 molecules.

Each structure is given as a SMILES string.

For experiment [1], the system named is LTB4 production in human whole blood. Description: Inhibition of LTB4 Production in Blood. Format: cell-based. The conditions noted are these: 1 h, 20 μM A23187, 60 minutes at 37° C., LTB4 in plasma by ELISA, read-out: protection against LTB4 at an EC50. The method, boiled down: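 Citrated human whole blood preincubated 15 min at 37 °C with compound (top final 30 μM, 1:3 dilutions, quadruplicate), then stimulated with 20 μM A23187 for 60 min at 37 °C. Plasma LTB4 quantified by ELISA; IC50 from percent inhibition versus vehicle.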

Experiment [2] deals with T1, porcine leukocyte 12/15-Lipoxygenase (Sus scrofa, UniProt P16469).
T1 sequence (P16469 1-663): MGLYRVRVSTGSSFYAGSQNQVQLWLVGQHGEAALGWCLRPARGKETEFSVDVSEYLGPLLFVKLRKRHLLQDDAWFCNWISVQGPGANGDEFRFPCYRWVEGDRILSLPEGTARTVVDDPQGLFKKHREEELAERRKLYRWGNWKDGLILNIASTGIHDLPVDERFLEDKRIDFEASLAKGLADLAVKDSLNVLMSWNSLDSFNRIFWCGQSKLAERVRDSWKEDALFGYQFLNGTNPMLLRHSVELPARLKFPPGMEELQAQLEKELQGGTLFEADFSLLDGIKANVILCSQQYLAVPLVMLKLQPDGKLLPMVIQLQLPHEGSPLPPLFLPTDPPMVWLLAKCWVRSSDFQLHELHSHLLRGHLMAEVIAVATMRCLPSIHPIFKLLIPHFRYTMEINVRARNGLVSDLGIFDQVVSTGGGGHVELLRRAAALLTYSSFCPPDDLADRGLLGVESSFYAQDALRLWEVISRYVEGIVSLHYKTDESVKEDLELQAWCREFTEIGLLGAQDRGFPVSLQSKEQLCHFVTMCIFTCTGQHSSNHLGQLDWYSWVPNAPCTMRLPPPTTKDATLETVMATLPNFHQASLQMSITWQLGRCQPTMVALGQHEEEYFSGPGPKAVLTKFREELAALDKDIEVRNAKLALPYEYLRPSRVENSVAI
Briefly: 12/15-Lipoxygenase Enzyme Assay. Format: biochemical. The following applies: 70 μM arachidonic acid, 10 minute incubation at room temperature, FOX reagent, absorbance at 620 nm; read-out: inhibition of 12/15-Lipoxygenase with an IC50.

For orientation: EC50 means the concentration that produces a half-maximal response. Regarding `Cc1c(O)cc2c(c1C)OC1(CCC1)CC2` [7,8-dimethyl-3,4-dihydrospiro[chromene-2,1′-cyclobutan]-6-ol], the 50% effective concentration (EC50) in experiment [1] is less than 10 µM. The IC50 in experiment [2] is less than 5 µM. Regarding `Cc1c(O)c(C(C)(C)C)cc2c1CCC1(CCC1)O2` [7-tert-butyl-5-methyl-3,4-dihydrospiro[chromene-2,1′-cyclobutan]-6-ol], the EC50 in experiment [1] is less than 10 µM. Further, in experiment [2], the IC50 was less than 5 µM. In the case of `Cc1cc2c(c(C)c1O)CC1(CCC1)CO2` [5,7-dimethylspiro[chroman-3,1′-cyclobutan]-6-ol], the EC50 in experiment [1] was less than 10 µM. The IC50 in experiment [2] is less than 5 µM.

Turning to `Cc1cc2c(c(C)c1O)CCC1(CCC1)O2` [5,7-dimethyl-3,4-dihydrospiro[chromene-2,1′-cyclobutan]-6-ol], the EC50 in experiment [1] was less than 10 µM. Further, the IC50 in experiment [2] was less than 5 µM.

As to `CCONC1CC2(CCC2)Sc2cc(C)c(O)c(C)c21` (stereo not drawn) [4′-(ethoxyamino)-5′,7′-dimethyl-3′,4′-dihydrospiro[cyclobutane-1,2′-thiochromen]-6′-ol], the EC50 in experiment [1] was less than 10 µM. Further, the IC50 in experiment [2] was less than 5 µM. In the same order, the values of `CCO/N=C/C1=Cc2c(cc(C)c(O)c2C)OC12CCC2` [6-hydroxy-5,7-dimethylspiro[chromene-2,1′-cyclobutane]-3-carbaldehyde O-ethyloxime] are less than 10 µM and less than 5 µM. In the same order, the values of `CO/N=C1\CC2(CCC2)Sc2c(C)c(C)c(O)c(C)c21` [6′-hydroxy-5′,7′,8′-trimethylspiro[cyclobutane-1,2′-thiochroman]-4′(3′H)-one O-methyloxime] are less than 10 µM and less than 5 µM. On the same counts, the results for `COC(C)C1=Cc2c(C)c(O)c(C)c(C)c2OC12CCC2` (stereo not drawn) [3-(1-methoxyethyl)-5,7,8-trimethylspiro[chromene-2,1′-cyclobutan]-6-ol] are less than 10 µM and less than 5 µM. Take `CCONCC1=Cc2c(cc(C)c(O)c2C)OC12CCC2` [3-[(ethoxyamino)methyl]-5,7-dimethylspiro[chromene-2,1′-cyclobutan]-6-ol]: in experiment [1], the EC50 is less than 10 µM. For the same molecule, the IC50 in experiment [2] was less than 5 µM.

Take `Cc1cc2c(c(C)c1O)C=CC1(CCC1)O2` [5,7-dimethylspiro[chromene-2,1′-cyclobutan]-6-ol]: the 50% effective concentration (EC50) in experiment [1] is less than 10 µM. Also, the IC50 in experiment [2] is less than 5 µM. On the same counts, the results for `CCONC1CC2(CCC2)Sc2c(C)c(C)c(O)c(C)c21` (stereo not drawn) [4′-(ethoxyamino)-5′,7′,8′-trimethyl-3′,4′-dihydrospiro[cyclobutane-1,2′-thiochromen]-6′-ol] are less than 10 µM and less than 5 µM. `Cc1c(C)c2c(c(Cl)c1O)CCC1(CCC1)O2` [5-chloro-7,8-dimethyl-3,4-dihydrospiro[chromene-2,1′-cyclobutan]-6-ol]: the IC50 in experiment [2] is less than 5 µM. On the same count and under the same terms, the value for `Cc1c(C)c2c(c(C)c1O)C1(CCC1)CCS2` [5′,7′,8′-trimethyl-2′,3′-dihydrospiro[cyclobutane, 1,4′-thiochromen]-6′-ol] was less than 5 µM. With `CC(C)(C)c1cc2c(cc1O)CCC1(CCC1)O2` [7-tert-butyl-3,4-dihydrospiro[chromene-2,1′-cyclobutan]-6-ol], the EC50 in experiment [1] is less than 10 µM. In addition, in experiment [2], the IC50 is less than 5 µM.

On to `Cc1c(C)c2c(c(C)c1O)C1(CCC1)CC(C)(C)S2` [2′,2′,5′,7′,8′-pentamethyl-2′,3′-dihydrospiro[cyclobutane-1,4′-thiochromen]-6′-ol], for which the EC50 in experiment [1] is less than 10 µM. For the same molecule, in experiment [2], the IC50 is less than 5 µM. On the same counts, the results for `CONC1CC2(CCC2)Sc2c(C)c(C)c(O)c(C)c21` (stereo not drawn) [4′-(methoxyamino)-5′,7′,8′-trimethyl-3′,4′-dihydrospiro[cyclobutane-1,2′-thiochromen]-6′-ol] are less than 10 µM and less than 5 µM. Take `CCc1cc2c(c(CC)c1O)CC(CSCC(=O)OC)C1(CCC1)O2` (stereo not drawn) [methyl 2-((5,7-diethyl-6-hydroxyspiro[chroman-2,1′-cyclobutane]-3-yl)methylthio)acetate]: the EC50 in experiment [1] was less than 10 µM. In experiment [2], the IC50 was less than 5 µM. In the same order, the values of `CONC1CC2(CCC2)Sc2cc(C)c(O)c(C)c21` (stereo not drawn) [4′-(methoxyamino)-5′,7′-dimethyl-3′,4′-dihydrospiro[cyclobutane-1,2′-thiochromen]-6′-ol] are less than 10 µM and less than 5 µM.

As for `Cc1c(C)c2c(c(C)c1O)CCC1(CC1)O2` [5,7,8-trimethyl-3,4-dihydrospiro[chromene-2,1′-cyclopropan]-6-ol], the concentration for a half-maximal effect (EC50) in experiment [1] is less than 10 µM. Also, the IC50 in experiment [2] is less than 5 µM.
